According to patent publication US12357631B2 (priority 2018, dated 2025):

Each compound was assayed against PB2 (Influenza A virus, UniProt P03428) (assay: biochemical).
Chain of PB2 (P03428 whole entry, looked up): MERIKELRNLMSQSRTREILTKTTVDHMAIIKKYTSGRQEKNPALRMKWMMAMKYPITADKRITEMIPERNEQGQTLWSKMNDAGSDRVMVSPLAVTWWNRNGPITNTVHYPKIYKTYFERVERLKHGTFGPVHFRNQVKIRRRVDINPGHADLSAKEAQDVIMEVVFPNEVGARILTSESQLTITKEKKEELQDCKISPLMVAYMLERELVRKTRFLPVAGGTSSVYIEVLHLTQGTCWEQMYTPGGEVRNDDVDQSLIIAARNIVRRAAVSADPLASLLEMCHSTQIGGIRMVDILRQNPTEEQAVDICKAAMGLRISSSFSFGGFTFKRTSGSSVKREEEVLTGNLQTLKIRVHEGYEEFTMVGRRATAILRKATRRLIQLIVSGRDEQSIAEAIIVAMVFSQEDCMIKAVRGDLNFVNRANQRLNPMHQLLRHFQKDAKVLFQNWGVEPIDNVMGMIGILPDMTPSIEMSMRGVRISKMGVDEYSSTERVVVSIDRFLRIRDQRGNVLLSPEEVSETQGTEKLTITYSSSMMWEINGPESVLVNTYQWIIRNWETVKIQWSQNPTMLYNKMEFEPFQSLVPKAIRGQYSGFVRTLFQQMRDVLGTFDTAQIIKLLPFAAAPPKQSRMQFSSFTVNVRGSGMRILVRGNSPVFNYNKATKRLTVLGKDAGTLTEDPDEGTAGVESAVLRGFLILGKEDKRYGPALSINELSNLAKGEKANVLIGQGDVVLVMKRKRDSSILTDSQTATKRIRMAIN
Format: binding
`CCCCCCCCCCCN(Cc1ccccc1)C(=O)N[C@@H]1CCC[C@H](Nc2nc(-c3c[nH]c4ncc(F)cc34)ncc2F)C1` [Compound A185] gave an EC50 greater than 100 µM.
For `O=C(N[C@@H]1CCC[C@H](Nc2nc(-c3c[nH]c4ncc(F)cc34)ncc2F)C1)c1cc(Oc2ccccc2)ccn1` [Compound A66], the EC50 was greater than 100 µM.
Work on `CCOc1ccccc1CNC(=O)OCc1ccnc(C(=O)N[C@H]2CCC[C@@H](Nc3nc(-c4c[nH]c5ncc(F)cc45)ncc3F)C2)c1` [Compound A133] yielded an EC50 greater than 100 µM.
`O=C(O)CCOCCOCCOCC(=O)N[C@H]1CCC[C@@H](Nc2nc(-c3c[nH]c4ncc(F)cc34)ncc2F)C1` [Compound A268] showed an EC50 of less than 5 µM.
`COc1ccc(CNC(=O)OCc2ccnc(C(=O)N[C@H]3CCC[C@@H](Nc4nc(-c5c[nH]c6ncc(F)cc56)ncc4F)C3)c2)cc1OC` [Compound A126] showed an EC50 greater than 100 µM.
In the case of `CCOCCOCCCCCN(CC(=O)N(C)C)C(=O)N[C@@H]1CCC[C@H](Nc2nc(-c3c[nH]c4ncc(F)cc34)ncc2F)C1` [Compound B7], the EC50 is reported as 25 to 50 µM.
Work on `O=C(O)CC(=O)N1CCC[C@H](Nc2nc(-c3c[nH]c4ncc(F)cc34)ncc2F)C1` [Compound C10] yielded an EC50 of less than 5 µM.
For `CCC(CC)OCCOCCCc1ccnc(C(=O)N[C@@H]2CCC[C@H](Nc3nc(-c4c[nH]c5ncc(F)cc45)ncc3F)C2)c1` [Compound A40], the EC50 was greater than 100 µM.
For `CCOCCOCCCCCN1CC(=O)N([C@@H]2CCC[C@H](Nc3nc(-c4c[nH]c5ncc(F)cc45)ncc3F)C2)C1=O` [Compound A5], the EC50 was greater than 100 µM.
`CCCCc1ccnc(C(=O)N[C@H]2CCC[C@@H](Nc3nc(-c4c[nH]c5ncc(F)cc45)ncc3F)C2)c1` [Compound A42] was tested, and the EC50 was greater than 100 µM.
Work on `CCOCCOCc1cccc(CN(C)C(=O)N[C@@H]2CCC[C@H](Nc3nc(-c4c[nH]c5ncc(F)cc45)ncc3F)C2)c1` [Compound A204] yielded an EC50 greater than 100 µM.
`CC(NC(=O)OCc1ccnc(C(=O)N[C@H]2CCC[C@@H](Nc3nc(-c4c[nH]c5ncc(F)cc45)ncc3F)C2)c1)c1ccc(F)cc1` (stereo partly shown) [Compound A131] gave an EC50 greater than 100 µM.
In the case of `CCOc1ccc(CNC(=O)OC(C)c2ccnc(C(=O)N[C@H]3CCC[C@@H](Nc4nc(-c5c[nH]c6ncc(F)cc56)ncc4F)C3)c2)cc1` (stereo partly shown) [Compound A139], the EC50 is reported as greater than 100 µM.
For `CCOCc1cccc(COCc2ccnc(C(=O)N[C@H]3CCC[C@@H](Nc4nc(-c5c[nH]c6ncc(F)cc56)ncc4F)C3)c2)c1` [Compound A71], the EC50 was greater than 100 µM.
Work on `O=C(N[C@H]1CCC[C@@H](Nc2nc(-c3c[nH]c4ncc(F)cc34)ncc2F)C1)c1cc(CC(O)CO)ccn1` (stereo partly shown) [Compound A50] yielded an EC50 of less than 5 µM.
Work on `CCCCOCCCCCCN(C)C(=O)N[C@@H]1CCC[C@H](Nc2nc(-c3c[nH]c4ncc(F)cc34)ncc2F)C1` [Compound A200] yielded an EC50 greater than 100 µM.
Compound `CCOCCOCCOCCNC(=O)N(CCOCc1ccccc1)[C@@H]1CCC[C@H](Nc2nc(-c3c[nH]c4ncc(F)cc34)ncc2F)C1` [Compound B5] has an EC50 greater than 100 µM.
`CCOCCOCCCCCN(C)C(=O)N1CCC(CNc2nc(-c3c[nH]c4ncc(F)cc34)ncc2F)C1` (stereo not shown) [Compound C8] was tested, and the EC50 was greater than 100 µM.
For `CCOCCCc1cccc(CCN(C)C(=O)N[C@H]2CCC[C@@H](Nc3nc(-c4c[nH]c5ncc(F)cc45)ncc3F)C2)n1` [Compound A213], the EC50 was greater than 100 µM.
`O=C(N[C@@H]1CCC[C@H](Nc2nc(-c3c[nH]c4ncc(F)cc34)ncc2F)C1)c1cc(CCCO)ccn1` [Compound A39] was tested, and the EC50 was less than 5 µM.
Work on `O=C(N[C@H]1CCC[C@@H](Nc2nc(-c3c[nH]c4ncc(F)cc34)ncc2F)C1)N1CCCC(CCCOCCOCc2ccccc2)C1` (stereo partly shown) [Compound A9] yielded an EC50 greater than 100 µM.
`CN(CCOCCOCCOCCO)C(=O)N[C@H]1CCC[C@@H](Nc2nc(-c3c[nH]c4ncc(F)cc34)ncc2F)C1` [Compound A190] was tested, and the EC50 was greater than 100 µM.
For `O=C(NCCc1ccc(F)cc1)OCc1ccnc(C(=O)N[C@H]2CCC[C@@H](Nc3nc(-c4c[nH]c5ncc(F)cc45)ncc3F)C2)c1` [Compound A101], the EC50 was greater than 100 µM.
`COc1ccc(CNC(=O)OCc2ccnc(C(=O)N[C@H]3CCC[C@@H](Nc4nc(-c5c[nH]c6ncc(F)cc56)ncc4F)C3)c2)cc1` [Compound A73] was tested, and the EC50 was greater than 100 µM.
With `CC(C)[C@H](NC(=O)OCc1ccnc(C(=O)N[C@@H]2CCC[C@H](Nc3nc(-c4c[nH]c5ncc(F)cc45)ncc3F)C2)c1)C(=O)O` [Compound A135] the EC50 was 5 to 25 µM.
`CCOCCOCCCCCN(CC)C(=O)N[C@H]1CCC[C@@H](Nc2nc(-c3c[nH]c4ncc(F)cc34)ncc2F)C1` [Compound A203] was tested, and the EC50 was greater than 100 µM.
`CCNC(=O)CNC(=O)OCc1ccnc(C(=O)N[C@H]2CCC[C@@H](Nc3nc(-c4c[nH]c5ncc(F)cc45)ncc3F)C2)c1` [Compound A111] gave an EC50 of 5 to 25 µM.
In the case of `CC(NC(=O)OCc1ccnc(C(=O)N[C@H]2CCC[C@@H](Nc3nc(-c4c[nH]c5ncc(F)cc45)ncc3F)C2)c1)c1ccccc1F` (stereo partly shown) [Compound A143], the EC50 is reported as greater than 100 µM.
`CN(CCOCCOCCOCCC(=O)O)C(=O)N[C@H]1CCC[C@@H](Nc2nc(-c3c[nH]c4ncc(F)cc34)ncc2F)C1` [Compound A171] gave an EC50 of 25 to 50 µM.
`O=C(O)CCc1ccnc(C(=O)N[C@H]2CCC[C@@H](Nc3nc(-c4c[nH]c5ncc(F)cc45)ncc3F)C2)c1` [Compound A49] showed an EC50 of less than 5 µM.
For `O=C(N[C@H]1CCC[C@@H](Nc2nc(-c3c[nH]c4ncc(F)cc34)ncc2F)C1)N1CCCc2ccccc21` [Compound A1], the EC50 was greater than 100 µM.
`CCOCCCCCOCCN(Cc1ccccc1)C(=O)N[C@H]1CCC[C@@H](Nc2nc(-c3c[nH]c4ncc(F)cc34)ncc2F)C1` [Compound A196] showed an EC50 greater than 100 µM.
`CCOc1ccc(-c2ccnc(C(=O)N[C@@H]3CCC[C@H](Nc4nc(-c5c[nH]c6ncc(F)cc56)ncc4F)C3)c2)cc1` [Compound A62] showed an EC50 of 5 to 25 µM.
`O=C(NCc1ccccc1)OCc1ccnc(C(=O)N[C@@H]2CCC[C@H](Nc3nc(-c4c[nH]c5ncc(F)cc45)ncc3F)C2)c1` [Compound A91] was tested, and the EC50 was greater than 100 µM.
`CCCOCCCCCCCN(C)C(=O)N[C@@H]1CCC[C@H](Nc2nc(-c3c[nH]c4ncc(F)cc34)ncc2F)C1` [Compound A235] was tested, and the EC50 was 50 to 100 µM.
With `O=C(NCCOCCOCCOCCO)N[C@@H]1CCC[C@H](Nc2nc(-c3c[nH]c4ncc(F)cc34)ncc2F)C1` [Compound A166] the EC50 was 5 to 25 µM.
Compound `CCOCCCc1ccnc(C(=O)N[C@@H]2CCC[C@H](Nc3nc(-c4c[nH]c5ncc(F)cc45)ncc3F)C2)c1` [Compound A38] has an EC50 of 25 to 50 µM.
`CCOc1ccc(CNC(=O)OCc2cc(C(=O)N[C@H]3CCC[C@@H](Nc4nc(-c5c[nH]c6ncc(F)cc56)ncc4F)C3)ncc2F)cc1` [Compound A147] was tested, and the EC50 was greater than 100 µM.
`O=C(NCc1ccc(F)cc1)OCc1ccnc(C(=O)N[C@@H]2CCC[C@H](Nc3nc(-c4c[nH]c5ncc(F)cc45)ncc3F)C2)c1` [Compound A92] showed an EC50 greater than 100 µM.
Work on `O=C(N[C@H]1CCC[C@@H](Nc2nc(-c3c[nH]c4ncc(F)cc34)ncc2F)C1)N1CCc2ccccc21` [Compound A14] yielded an EC50 of 50 to 100 µM.
For `CCOCCOCCOCCN(C(=O)N(C)C)[C@@H]1CCC[C@H](Nc2nc(-c3c[nH]c4ncc(F)cc34)ncc2F)C1` [Compound B6], the EC50 was greater than 100 µM.
With `O=C(N[C@@H]1CCC[C@H](Nc2nc(-c3c[nH]c4ncc(F)cc34)ncc2F)C1)c1cc(CCCOCCOCc2ccc(F)cc2)ccn1` [Compound A36] the EC50 was greater than 100 µM.
With `CC(C)[C@@H](NC(=O)OCc1ccnc(C(=O)N[C@@H]2CCC[C@H](Nc3nc(-c4c[nH]c5ncc(F)cc45)ncc3F)C2)c1)C(=O)O` [Compound A142] the EC50 was less than 5 µM.
`O=C(N[C@@H]1CCC[C@H](Nc2nc(-c3c[nH]c4ncc(F)cc34)ncc2F)C1)c1cc(CCCOCCOCCO)ccn1` [Compound A59] showed an EC50 of less than 5 µM.
In the case of `CCOCCCc1cncc(CCN(C)C(=O)N[C@H]2CCC[C@@H](Nc3nc(-c4c[nH]c5ncc(F)cc45)ncc3F)C2)c1` [Compound A215], the EC50 is reported as greater than 100 µM.
In the case of `O=C(N[C@@H]1CCC[C@H](Nc2nc(-c3c[nH]c4ncc(F)cc34)ncc2F)C1)c1ccc(-c2ccccc2)nc1` [Compound A63], the EC50 is reported as 5 to 25 µM.
`O=C(NCc1ccc2c(c1)OCO2)OCc1ccnc(C(=O)N[C@H]2CCC[C@@H](Nc3nc(-c4c[nH]c5ncc(F)cc45)ncc3F)C2)c1` [Compound A130] gave an EC50 greater than 100 µM.
With `CCOCCCCCCc1ccnc(C(=O)N[C@H]2CCC[C@@H](Nc3nc(-c4c[nH]c5ncc(F)cc45)ncc3F)C2)c1` [Compound A30] the EC50 was greater than 100 µM.
In the case of `CCOCCOCCCc1cc(C(=O)N[C@@H]2CCC[C@H](Nc3nc(-c4c[nH]c5ncc(F)cc45)ncc3F)C2)ncn1` [Compound A33], the EC50 is reported as greater than 100 µM.
Work on `CCOCCCCCOCCN(C)C(=O)N[C@H]1CCC[C@@H](Nc2nc(-c3c[nH]c4ncc(F)cc34)ncc2F)C1` [Compound A193] yielded an EC50 greater than 100 µM.
`O=C(N[C@H]1CCC[C@@H](Nc2nc(-c3c[nH]c4ncc(F)cc34)ncc2F)C1)c1cc(COCCCCCOCc2ccncc2)ccn1` [Compound A103] was tested, and the EC50 was greater than 100 µM.
For `O=C(O)COCCOCCOCCC(=O)N[C@H]1CCC[C@@H](Nc2nc(-c3c[nH]c4ncc(F)cc34)ncc2F)C1` [Compound A269], the EC50 was 5 to 25 µM.
In the case of `CCOCCOCCCCCN(CC)C(=O)N[C@H]1CCC[C@@H](Nc2nc(-c3c[nH]c4ncc(F)cc34)ncc2F)C1` [Compound A228], the EC50 is reported as 50 to 100 µM.
Compound `O=C(N[C@H]1CCC[C@@H](Nc2nc(-c3c[nH]c4ncc(F)cc34)ncc2F)C1)c1cccnc1` [Compound A37] has an EC50 greater than 100 µM.
`O=C(NCCc1cccc(Oc2ccccc2)c1)OCc1ccnc(C(=O)N[C@H]2CCC[C@@H](Nc3nc(-c4c[nH]c5ncc(F)cc45)ncc3F)C2)c1` [Compound A109] was tested, and the EC50 was greater than 100 µM.
Work on `CCOCCOCCCCCN(C)C(=O)N1CCC(C(=O)Nc2nc(-c3c[nH]c4ncc(F)cc34)ncc2F)C1` (stereo not shown) [Compound C9] yielded an EC50 greater than 100 µM.
Work on `CCOCCOCCCCCN(C)C(=O)NC1CCC(Nc2nc(-c3c[nH]c4ncc(F)cc34)ncc2F)C1` (stereo not shown) [Compound A217] yielded an EC50 greater than 100 µM.
`CCOc1ccc(CNC(=O)OCc2ccnc(C(=O)N[C@H]3CCC[C@@H](Nc4nc(-c5c[nH]c6ncc(F)cc56)ncc4F)C3)c2)cc1` [Compound A112] was tested, and the EC50 was greater than 100 µM.
`CCOCCOCCOCCNC(=O)N(CCc1ccccc1)[C@@H]1CCC[C@H](Nc2nc(-c3c[nH]c4ncc(F)cc34)ncc2F)C1` [Compound B2] showed an EC50 of 50 to 100 µM.
With `O=C(NCC1COCCN1)OCc1ccnc(C(=O)N[C@H]2CCC[C@@H](Nc3nc(-c4c[nH]c5ncc(F)cc45)ncc3F)C2)c1` (stereo partly shown) [Compound A120] the EC50 was 5 to 25 µM.
`O=C(NCc1cccc(C(=O)O)c1)OCc1ccnc(C(=O)N[C@@H]2CCC[C@H](Nc3nc(-c4c[nH]c5ncc(F)cc45)ncc3F)C2)c1` [Compound A98] was tested, and the EC50 was less than 5 µM.
